Series [1] concerns the target human dopamine transporter (DAT) (Homo sapiens (Human), UniProt Q01959). Description: Scintillation Proximity Assay (SPA) for human DAT binding ([3H]WIN-35,428). The settings on record: recombinant human DAT, CHO. The source says: (§1) Affinity is expressed in terms of inhibition constant (Ki) of the compounds of the invention for DAT, NET and SERT, and it is typically calculated from the IC50 values obtained in competition experiments using Cheng and Prusoff equation (Cheng and Prusoff, Biochem. Pharmacol. 22:3099, 1973). In the context of the present invention pKi values (corresponding to the antilogarithm of Ki) are used instead of Ki; pKi are only estimated to be accurate to about 0.3 log unit.
(§2) Chinese Hamster Ovary (CHO) cells stably expressing either human DAT (hDAT-CHO) or human NET (hNET-CHO) or human SERT (hSERT-CHO) are used for the membrane preparations for radioligand binding assays using Scintillation proximity Assay (SPA) technique. Each cell line is cultured independently in F-12K Nutrient Mixture containing 10% of Fetal Bovine Serum (FBS) supplemented with 450 μg/ml G-418. When cells are at 70-80% of confluence 3 mM Na Butyrate was added to the cell culture medium. After 24 h of incubation, the culture medium was removed and the cells detached with Versene (DAT) or by scraping (NET and SERT). Cell suspension is centrifuged at 41,000 g for 10 minutes at 4° C. The resultant pellets are re-suspended in 15 volumes of Ice-cold buffer (20 mM HEPES, 145 mM NaCl, 5 mM KCl, pH7.3), homogenized using an Ultra Turrax homogeniser and centrifuged as before. The resultant membrane pellets are re-suspended in up to 15 volume of ice-cold buffer, incubated for 20 minutes at 37° C and centrifuged as before at 41,000 g. The final membrane pellets are re-suspended into 5-10 volumes of ice-cold buffer, dispensed into 0.5 ml aliquots and stored at −80° C. until use. Protein concentration for each preparation is determined using Bio-Rad Protein Assay Kit.
(§3) The affinity of the compounds of the invention to the human DAT or NET or SERT transporters is assessed by using the [^3H]WIN-35,428 or [^3H]nisoxetine or [^3H]citalopram binding assays in recombinant human DAT, NET and SERT membranes with the SPA technology. The final assay volume is 50 μL in 384 well plates.
(§4) Briefly, 0.5 μL of test compound in neat DMSO or 0.5 μL of DMSO for total binding (TB) or 0.5 μL of indatraline 1 mM (10 μM final concentration) for non specific binding (NSB) are added to the assay plate. 50 μL of the SPA mixture is added to each well, containing: 30 μg/mL or 10 μg/mL or 25 μg/mL DAT, NET, SERT membranes, respectively; 5 nM [^3H]WIN-35,428 or 5 nM [^3H]nisoxetine or 1 nM [^3H]citalopram, for DAT, NET, SERT assay, respectively; 2.5 mg/mL or 1 mg/mL or 4 mg/mL WGA-PVT SPA beads (PerkinElmer RPNQ0001, for DAT, NET, SERT assay, respectively. All components are added to Assay Buffer (20 mM HEPES pH 7.4, 145 mM NaCl, 5 mM KCl, 0.01% Pluronic F-127). 0.02% BSA was used for DAT binding only. Plates are sealed with Topseal A and centrifuged 1 min, 800 rpm. Plates are loaded into a 1450 Microbeta TriLux (Perkin-Elmer) plate reader and the radioactivity counted after at least 4 hrs or overnight incubation at room temperature. Curve fitting and IC50 estimations are performed using a four parameter model in XLfit (IDBS, Guilford, UK) for Microdoft Excel (Microsoft, Redmond, Wash.).
The potency of the compounds of the invention in blocking the DAT function is measured using an uptake assay in a recombinant CHO cell line expressing human DAT (hDAT-CHO). Potency is measured in terms of pIC50 by testing the compounds of invention for the inhibition of [^3H]-dopamine uptake in DAT-CHO cells using a SPA technology in 384 well format.
Briefly, on the days of the experiment hDAT-CHO cells are detached using Versene and added (75,000 cells/mL) to the SPA Mixture, which contains the following components in Assay Buffer (20 mM HEPES, 145 mM NaCl, 5 mM KCl, 2 mM CaCl2, 1 mM MgCl2 and 1 g/L glucose, pH 7.3): 0.02% w/v of Pluronic F127, 2 mg/mL SPA Imaging beads (RPNQ0260, PerkinElmer), 10 μM pargyline and 80 nM of [^3H]-dopamine. […]

Series [2] addresses human norepinephrine transporter (NET) (Homo sapiens (Human), UniProt P23975). The series can be described thus: Scintillation Proximity Assay (SPA) for human NET binding ([3H]nisoxetine). The settings on record: recombinant human NET, CHO membranes.
Description: as §1, §2, §3, §4
A general note: Scintillation proximity formats need no separation of bound from free tracer.

In series [3] the target is human serotonin transporter (SERT) (Homo sapiens (Human), UniProt P31645). The series can be described thus: Scintillation Proximity Assay (SPA) for human SERT binding ([3H]citalopram). The note with it: recombinant human SERT, CHO membranes.
Description: as §1, §2, §3, §4

Series [4] concerns the target human ERG potassium channel (hERG) (Homo sapiens (Human), UniProt Q12809). The series can be described thus: hERG channel tail current recording using Rapid ICE automated patch-clamp. Type of series: cell-based. The note with it: HEK293 cells stably transfected with hERG. On the procedure:
The potency of the compounds of the invention in inhibiting human ERG potassium channel (hERG) tail current is assessed in a recombinant HEK293 cell line stably transfected with hERG cDNA using Rapid ICE™ (Rapid Ion Channel Electrophysiology) assay. Rapid ICE™ is an automated patch-clamp assay utilizing the PatchXpress 7000A system (Molecular Devices Corporation) or the QPatch HTX system (Sophion Bioscience A/S).
Briefly cells are cultivated for 24 to 72 hours before recordings in minimum essential medium supplemented with 10% FBS, 1% non-essential amino acids, 1% sodium pyruvate, 2 mM L-glutamine. The day of the experiment cells are detached with TrypLE and prepared to be loaded on the instrument. For PatchXpress cells are finally resuspended in 150 μl of Extracellular Buffer whereas for QPatch cells are resuspended in 7 ml Serum-Free Media containing 25 mM Hepes and Soybean trypsin inhibitor and immediately placed in the cell storage tank of the machine. The composition of the Extracellular Buffer is (mM): NaCl 137; KCl 4; CaCl2 1.8; MgCl2 1.0; D-glucose 10; N 2 hydroxyethylpiperazine-N′-2-ethanesulfonic acid (HEPES) 10; pH 7.4 with 1 M NaOH. The composition of the pipette solution is (mM): KCl 130; MgCl2 1.0; Ethylene glycol-bis(β-aminoethyl ether)-N,N,N′,N′-tetraacetic acid (EGTA) 5; MgATP 5; HEPES 10; pH 7.2 with 1 M KOH. The voltage protocol includes the following steps: step from −80 mV to −50 mV for 200 ms, +20 mV for 4.8 s, step to −50 mV for 5 s then step to the holding potential of −80 mV. Compounds of the invention are dissolved in DMSO and diluted in Extracellular Buffer to achieve final test concentrations (0.1, 1 and 10 μM) in 0.1% DMSO. The voltage protocol is run and recorded continuously during the experiment. The vehicle, corresponding to 0.1% DMSO in Extracellular Buffer, is then applied for 3 min followed by the test substance in triplicate. The standard combined exposure time is 5 min. The average of tail current amplitude values recorded from 4 sequential voltage pulses is used to calculate for each cell the effect of the test substance by calculating the residual current (% control) compared with vehicle pre-treatment. Data are reported as % inhibition for each concentration tested and IC50 values are estimated using DataXpress or QPatch software. At least two cells are tested, more if results diverge.

human serotonin transporter (SERT), sequence (P31645 whole entry): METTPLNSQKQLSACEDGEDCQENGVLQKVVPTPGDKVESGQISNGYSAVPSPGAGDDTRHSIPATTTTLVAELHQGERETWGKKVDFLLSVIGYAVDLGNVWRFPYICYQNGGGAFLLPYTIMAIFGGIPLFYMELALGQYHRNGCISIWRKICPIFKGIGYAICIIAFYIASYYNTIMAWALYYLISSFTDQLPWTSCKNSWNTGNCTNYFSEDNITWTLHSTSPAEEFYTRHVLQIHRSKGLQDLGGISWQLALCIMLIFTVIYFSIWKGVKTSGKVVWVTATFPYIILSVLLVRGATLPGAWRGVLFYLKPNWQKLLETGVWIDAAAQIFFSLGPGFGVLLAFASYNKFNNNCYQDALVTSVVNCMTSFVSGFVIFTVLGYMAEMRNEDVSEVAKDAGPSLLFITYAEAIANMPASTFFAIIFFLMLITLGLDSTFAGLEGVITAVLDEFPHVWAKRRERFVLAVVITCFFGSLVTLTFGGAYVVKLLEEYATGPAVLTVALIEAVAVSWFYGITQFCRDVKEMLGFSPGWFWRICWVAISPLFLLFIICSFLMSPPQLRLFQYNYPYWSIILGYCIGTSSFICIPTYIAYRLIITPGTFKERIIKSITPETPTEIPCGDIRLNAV
human ERG potassium channel (hERG), sequence (Q12809 whole entry): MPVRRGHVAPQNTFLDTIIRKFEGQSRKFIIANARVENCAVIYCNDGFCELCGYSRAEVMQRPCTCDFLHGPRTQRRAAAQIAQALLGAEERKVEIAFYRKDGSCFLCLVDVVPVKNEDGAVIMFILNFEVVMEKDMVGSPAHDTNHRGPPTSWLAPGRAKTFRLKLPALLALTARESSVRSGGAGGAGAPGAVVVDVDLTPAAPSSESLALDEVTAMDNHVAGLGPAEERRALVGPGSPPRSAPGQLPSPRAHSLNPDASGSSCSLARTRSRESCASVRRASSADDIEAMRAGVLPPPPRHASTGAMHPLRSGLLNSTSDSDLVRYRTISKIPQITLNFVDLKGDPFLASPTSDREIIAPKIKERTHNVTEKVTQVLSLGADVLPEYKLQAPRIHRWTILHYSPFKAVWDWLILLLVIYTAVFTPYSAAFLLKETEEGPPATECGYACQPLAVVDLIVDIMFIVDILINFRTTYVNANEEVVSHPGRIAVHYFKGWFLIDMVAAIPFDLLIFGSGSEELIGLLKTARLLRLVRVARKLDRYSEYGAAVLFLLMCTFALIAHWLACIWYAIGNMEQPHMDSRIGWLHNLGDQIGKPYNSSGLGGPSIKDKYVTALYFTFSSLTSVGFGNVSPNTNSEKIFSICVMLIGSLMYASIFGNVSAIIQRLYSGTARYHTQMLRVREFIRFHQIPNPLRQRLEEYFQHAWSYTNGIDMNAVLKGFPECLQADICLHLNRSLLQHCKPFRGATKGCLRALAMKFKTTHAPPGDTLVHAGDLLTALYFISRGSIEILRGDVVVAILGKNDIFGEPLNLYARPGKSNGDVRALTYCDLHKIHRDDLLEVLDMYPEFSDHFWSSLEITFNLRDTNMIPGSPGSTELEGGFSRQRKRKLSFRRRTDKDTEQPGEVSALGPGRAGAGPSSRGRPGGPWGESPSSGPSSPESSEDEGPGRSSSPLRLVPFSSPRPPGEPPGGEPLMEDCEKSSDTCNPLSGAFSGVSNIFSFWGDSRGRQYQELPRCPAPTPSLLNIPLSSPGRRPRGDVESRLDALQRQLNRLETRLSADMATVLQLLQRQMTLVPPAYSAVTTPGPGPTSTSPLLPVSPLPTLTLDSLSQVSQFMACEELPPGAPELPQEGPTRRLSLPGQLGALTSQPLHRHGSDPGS
human norepinephrine transporter (NET), sequence (P23975 whole entry): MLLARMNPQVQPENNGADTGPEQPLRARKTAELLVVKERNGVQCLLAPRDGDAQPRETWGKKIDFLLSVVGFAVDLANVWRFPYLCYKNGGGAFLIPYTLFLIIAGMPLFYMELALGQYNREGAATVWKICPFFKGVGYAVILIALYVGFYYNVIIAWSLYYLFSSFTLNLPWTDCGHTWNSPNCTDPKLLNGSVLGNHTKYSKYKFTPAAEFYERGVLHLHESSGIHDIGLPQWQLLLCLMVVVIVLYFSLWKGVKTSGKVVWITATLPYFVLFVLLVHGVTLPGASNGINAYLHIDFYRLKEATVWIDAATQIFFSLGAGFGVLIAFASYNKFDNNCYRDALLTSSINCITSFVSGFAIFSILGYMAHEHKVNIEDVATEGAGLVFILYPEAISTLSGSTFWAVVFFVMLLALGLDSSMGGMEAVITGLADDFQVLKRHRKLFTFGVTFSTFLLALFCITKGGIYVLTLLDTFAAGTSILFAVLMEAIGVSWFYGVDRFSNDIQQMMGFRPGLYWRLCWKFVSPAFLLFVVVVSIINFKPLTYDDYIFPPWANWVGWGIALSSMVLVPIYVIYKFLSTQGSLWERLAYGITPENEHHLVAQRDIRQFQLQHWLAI
human dopamine transporter (DAT), sequence (Q01959 whole entry): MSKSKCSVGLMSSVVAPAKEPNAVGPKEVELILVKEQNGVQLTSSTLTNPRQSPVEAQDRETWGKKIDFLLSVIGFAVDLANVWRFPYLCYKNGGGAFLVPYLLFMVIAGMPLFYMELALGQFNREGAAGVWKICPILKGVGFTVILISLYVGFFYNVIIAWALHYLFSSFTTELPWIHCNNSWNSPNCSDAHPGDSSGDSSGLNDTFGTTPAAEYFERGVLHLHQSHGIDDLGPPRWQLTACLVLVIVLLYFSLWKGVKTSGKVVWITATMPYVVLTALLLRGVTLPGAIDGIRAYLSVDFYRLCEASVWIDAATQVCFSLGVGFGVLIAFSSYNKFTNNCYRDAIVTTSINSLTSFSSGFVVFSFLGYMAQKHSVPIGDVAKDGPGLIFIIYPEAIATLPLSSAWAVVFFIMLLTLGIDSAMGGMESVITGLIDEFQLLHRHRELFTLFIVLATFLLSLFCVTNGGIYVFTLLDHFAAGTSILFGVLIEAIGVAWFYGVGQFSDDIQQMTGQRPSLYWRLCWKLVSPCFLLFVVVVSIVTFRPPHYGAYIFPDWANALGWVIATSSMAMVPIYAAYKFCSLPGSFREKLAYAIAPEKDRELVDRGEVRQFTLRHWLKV

`CN(C)CC1(O)CCN(c2nc(Oc3cccc(F)c3)cc(C(F)(F)F)n2)CC1` [Example 1, 4-[(dimethylamino)methyl]-1-[4-(3-fluorophenoxy)-6(trifluoromethyl)pyrimidin-2-yl]piperidin-4-ol]: the “pIC50 DAT” value in series [1] is recorded as 8.46. For the same molecule, in series [2], the “pIC50 NET” value came to 7.00. The IC50 (usually the point on the concentration scale where inhibition reaches its midpoint) in series [3] was 13.5 µM. Moreover, in series [4], the “pIC50 hERG” value was 6.6.

On to `OC1(CN2CCCC2)CCN(c2nc(Oc3cccc(F)c3)cc(C(F)(F)F)n2)CC1` [Example 2, 1-[4-(3-fluorophenoxy)-6-(trifluoromethyl)pyrimidin-2-yl]-4-(pyrrolidin-1-ylmethyl)piperidin-4-ol], for which, in series [1], the “pIC50 DAT” value amounted to 8.80. For the same molecule, the “pIC50 NET” value in series [2] amounted to 7.57. For the same molecule, the IC50 in series [3] was 17 µM. In addition, the “pIC50 hERG” value in series [4] came out at 6.7.

As to `OC1(CNC2CC2)CCN(c2nc(Oc3cccc(F)c3)cc(C(F)(F)F)n2)CC1` [Example 3, 4-[(cyclopropylamino)methyl]-1-[4-(3-fluorophenoxy)-6-(trifluoromethyl)pyrimidin-2-yl]piperidin-4-ol], the “pIC50 DAT” value in series [1] stood at 8.13. The “pIC50 NET” value in series [2] was found to be 6.42. Also, in series [3], the IC50 is 21.4 µM. The “pIC50 hERG” value in series [4] was 6.0.

As to `CN(CC1(O)CCN(c2nc(Oc3cccc(F)c3)cc(C(F)(F)F)n2)CC1)C1CC1` [Example 4, 4-{[cyclopropyl(methyl)amino]methyl}-1-[4-(3-fluorophenoxy)-6-(trifluoromethyl)pyrimidin-2-yl]piperidin-4-ol], the “pIC50 DAT” value in series [1] amounted to 7.38. For the same molecule, in series [2], the “pIC50 NET” value came to 6.19. Further, in series [3], the IC50 is over 100 µM. Moreover, the “pIC50 hERG” value in series [4] came to 6.1.

As for `CNCC1(O)CCN(c2nc(Oc3cccc(F)c3)cc(C(F)(F)F)n2)CC1` [Example 5, 1-[4-(3-fluorophenoxy)-6-(trifluoromethyl)pyrimidin-2-yl]-4-[(methylamino)methyl]piperidin-4-ol], in series [1], the “pIC50 DAT” value was 8.33. For the same molecule, the “pIC50 NET” value in series [2] stood at 6.61. Moreover, in series [3], the IC50 was 23.4 µM. Also, the “pIC50 hERG” value in series [4] amounted to 5.7.

For `OC1(CN2CCC(F)(F)C2)CCN(c2nc(Oc3cccc(F)c3)cc(C(F)(F)F)n2)CC1` [Example 6, 4-[(3,3-difluoropyrrolidin-1-yl)methyl]-1-[4-(3-fluorophenoxy)-6-(trifluoromethyl)pyrimidin-2-yl]piperidin-4-ol], the “pIC50 DAT” value in series [1] stood at 6.89. Also, the “pIC50 NET” value in series [2] was determined as 5.94. Also, the results for the IC50 in series [3] and in series [4] were 32.4 µM and over 10 µM, respectively.

`Cl.OC1(CN2CCCNCC2)CCN(c2nc(Oc3cccc(F)c3)cc(C(F)(F)F)n2)CC1` [Example 7, 4-(1,4-diazepan-1-ylmethyl)-1-[4-(3-fluorophenoxy)-6-(trifluoromethyl)pyrimidin-2-yl]piperidin-4-ol hydrochloride]: the “pIC50 DAT” value in series [1] is given as 8.06. Further, in series [2], the “pIC50 NET” value turned out to be 6.53. For the same molecule, the half-inhibitory concentration (IC50) in series [3] is 2.95 µM. For the same molecule, the “pIC50 hERG” value in series [4] amounted to 5.8.

As for `CC1CCC(C)N1CC1(O)CCN(c2nc(Oc3cccc(F)c3)cc(C(F)(F)F)n2)CC1` (stereo not drawn) [Example 8, 4-[(2,5-dimethylpyrrolidin-1-yl)methyl]-1-[4-(3-fluorophenoxy)-6-(trifluoromethyl)pyrimidin-2-yl]piperidin-4-ol], the “pIC50 DAT” value in series [1] is 7.66. The “pIC50 NET” value in series [2] is on record as 6.29. Moreover, in series [3], the IC50 was 6.03 µM. For the same molecule, the “pIC50 hERG” value in series [4] was determined as 6.8.

Consider `NCC1(O)CCN(c2nc(Oc3cccc(F)c3)cc(C(F)(F)F)n2)CC1` [Example 11, 4-(aminomethyl)-1-[4-(3-fluorophenoxy)-6-(trifluoromethyl)pyrimidin-2-yl]piperidin-4-ol], for which, in series [1], the “pIC50 DAT” value came to 8.72. Besides, the “pIC50 NET” value in series [2] amounted to 6.46. Besides, the 50% inhibitory concentration (IC50) in series [3] is 7.59 µM. In addition, in series [4], the “pIC50 hERG” value came to 5.8.

As for `NCC1(F)CCN(c2nc(Oc3cccc(F)c3)cc(C(F)(F)F)n2)CC1` [Example 13, {4-fluoro-1-[4-(3-fluorophenoxy)-6-(trifluoromethyl)pyrimidin-2-yl]piperidin-4-yl}methanamine], the “pIC50 DAT” value in series [1] is 8.31. For the same molecule, the “pIC50 NET” value in series [2] is 6.40. In addition, the IC50 in series [3] was 7.24 µM. The “pIC50 hERG” value in series [4] came to 5.4.

As to `NCC1(O)CCN(c2cc(Oc3cccc(F)c3)cc(F)c2F)CC1` [Example 18, 4-(aminomethyl)-1-[2,3-difluoro-5-(3-fluorophenoxy)phenyl]piperidin-4-ol], the “pIC50 DAT” value in series [1] stood at 9.05. In addition, the “pIC50 NET” value in series [2] is recorded as 7.51. In addition, the IC50 in series [3] is 6.17 µM. Also, the “pIC50 hERG” value in series [4] is on record as 6.0.

For the molecule `NCC1(O)CCN(c2cc(F)c(F)c(Oc3cccc(F)c3)c2)CC1` [Example 19, 4-(aminomethyl)-1-[3,4-difluoro-5-(3-fluorophenoxy)phenyl]piperidin-4-ol], in series [1], the “pIC50 DAT” value was 8.02. The “pIC50 NET” value in series [2] turned out to be 6.10. The IC50 in series [3] was 0.363 µM. In series [4], the “pIC50 hERG” value was 6.1.

Values taken from patent US9920053B2, “N-(hetero)aryl-substituted heteroyclic derivatives useful for the treatment of diseases or conditions related to the central nervous system” (CHRONOS THERAPEUTICS LIMITED, priority 2014, dated 2018).
